Target: T1, CRTH2 receptor (Homo sapiens, UniProt Q9Y5Y4)
T1 construct: expressed in transfected cells; host or cells: Human embryonic kidney (HEK) cells, membranes
T1 sequence (Q9Y5Y4 1-395): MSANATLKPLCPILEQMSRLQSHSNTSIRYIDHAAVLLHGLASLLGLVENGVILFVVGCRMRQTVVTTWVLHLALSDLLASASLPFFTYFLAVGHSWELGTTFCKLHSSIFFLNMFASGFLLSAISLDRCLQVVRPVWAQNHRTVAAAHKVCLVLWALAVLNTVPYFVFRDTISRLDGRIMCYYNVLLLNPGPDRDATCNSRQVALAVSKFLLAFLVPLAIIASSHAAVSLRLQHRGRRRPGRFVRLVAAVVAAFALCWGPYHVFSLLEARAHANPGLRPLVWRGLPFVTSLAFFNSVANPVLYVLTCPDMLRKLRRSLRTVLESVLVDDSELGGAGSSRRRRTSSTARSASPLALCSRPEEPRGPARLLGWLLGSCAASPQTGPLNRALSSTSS
Test: CRTH2 radioligand binding assay ([3H]-PGD2 displacement, SPA)
Conditions: HEK cell membranes expressing the CRTH2 receptor, 1 nM [3H]-PGD2
Protocol: Compounds of the invention were tested using the following biological test methods to determine their ability to displace PGD2 from the CRTH2 receptor and for their ability to antagonise the functional effects of PGD2 at the CRTH2 receptor.
The receptor binding assay is performed in a final volume of 200 μl binding buffer [10 mM BES (pH 7.4), 1 mM EDTA, 10 mM manganese chloride, 0.01% BSA] and 1 nM [^3H]-PGD2 (Amersham Biosciences UK Ltd). Ligands are added in assay buffer containing a constant amount of DMSO (1% by volume). Total binding is determined using 1% by volume of DMSO in assay buffer and non-specific binding is determined using 10 μM of unlabeled PGD2 (Sigma). Human embryonic kidney (HEK) cell membranes (3.5 μg) expressing the CRTH2 receptor are incubated with 1.5 mg wheatgerm agglutinin SPA beads and 1 nM [^3H]-PGD2 (Amersham Biosciences UK Ltd) and the mixture incubated for 3 hours at room temperature. Bound [^3H]-PGD2 is detected using a Microbeta TRILUX liquid scintillation counter (Perkin Elmer). Compound IC50 value is determined using a 6-point dose response curve in duplicate with a semi-log compound dilution series. IC50 calculations are performed using Excel and XLfit (Microsoft), and this value is used to determine a Ki value for the test compound using the Cheng-Prusoff equation.

CCc1nc2c(F)ccc(OCC(=O)O)c2c(OC(F)F)c1Cc1ccc(Br)cc1 [Example 2, [3-(4-bromobenzyl)-4-difluoromethoxy-2-ethyl-8-fluoroquinolin-5-yloxy]acetic acid]
IC50: 7.5 nM

CCc1nc2c(F)ccc(OCC(=O)O)c2c(OC(F)F)c1Cc1ccc(C#N)cc1 [Example 1, [3-(4-cyanobenzyl)-4-difluoromethoxy-2-ethyl-8-fluoroquinolin-5-yloxy]acetic acid]
IC50: 6.1 nM

Source: patent US20100144786A1, “QUINOLINE DERIVATIVES AS CRTH2 RECEPTOR LIGANDS” (priority 2007, published 2010)
